{"source": "patent US12594278B2", "about": "“Method for treatment of muscular dystrophy” (CHILDREN'S NATIONAL MEDICAL CENTER, priority 2019, dated 2026)", "key": {"B6A/J mice": {"test_system": "B6A/J mice", "assay": "Repeat notexin-induced TA injury in batimastat-treated B6A/J mice", "type": "in vivo, mouse", "procedure": "Whether this effect of batimastat to repress FAP adipogenesis can improve muscle histopathology was tested in vivo. 12Mo B6A/J mice were treated for 10 weeks with batimastat (2 mg/kg i.p. 3× weekly). […] To determine if this reduction in adipogenic replacement was due to an effect on just FAP differentiation or also on FAP proliferation, FAP accumulation was quantified by PDGFRα labeling and no effect of batimastat treatment on FAP number was found (FIG. 12). […] Thus, inhibition of adipogenesis by batimastat is not due to reduced FAP numbers or improved myofiber repair. To further confirm the ability of batimastat to prevent dysferlinopathic muscle from injury-triggered FAP adipogenesis, we employed the repeat notexin-induced TA injury approach which induces significant adipogenic replacement of the muscle (FIG. 6D and FIG. 6E). […] Given that FAP numbers are unaffected by batimastat treatment, it was examined whether these batimastat treatment causes cells to adopt a fibrogenic fate by blocking their adipogenic differentiation. However, no change in intra-muscular fibrosis was observed as a result of batimastat treatment in either the gastrocnemius or injured TA (FIG. 12). […]\nMicroscopy and Image Analysis. […] Perilipin-1 quantification was performed by thresholding the image to exclude non-specific staining and then calculating the area of each lipid deposit encircled by perlipin-1 (excluding those in the epi- or perimysium) using MetaMorph software (Molecular Devices). The total area encircled by perilipin-1 was calculated for all lipid deposits across the muscle and expressed relative to the total cross-sectional area. PDGFRα and AnxA2 positive area was calculated using CellSens software (Olympus) by thresholding to remove non-specific staining and calculating the total positive area (again, excluding any epi- or perimysial staining) relative to the entire muscle cross-section. […]"}, "mdx mice": {"test_system": "mdx mice", "conditions": "previously shown; cited from earlier work"}}, "data": [{"smiles": "CNC(=O)[C@H](Cc1ccccc1)NC(=O)[C@H](CC(C)C)[C@H](CSc1cccs1)C(=O)NO", "note": "[batimastat]", "values": [{"measurement": "reduction in perilipin-1 positive area in TA following repeat notexin injury", "setting": "B6A/J mice; 3 notexin injuries during 10 weeks of batimastat 2 mg/kg i.p. 3× weekly, vs untreated mice", "value": "~40", "unit": "%"}, {"measurement": "intra-muscular fibrosis in injured TA (Masson's trichrome)", "setting": "B6A/J mice; 3 repeat notexin injuries, batimastat 2 mg/kg i.p. 3× weekly for 10 weeks", "value": "no change"}, {"measurement": "FAP accumulation caused by repeat notexin injuries (PDGFRα)", "setting": "B6A/J mice; TA, batimastat 2 mg/kg i.p. 3× weekly for 10 weeks", "value": "did not reduce"}, {"measurement": "fibrosis in mdx mice", "setting": "mdx mice", "value": "reduce fibrosis"}, {"measurement": "muscle function in mdx mice", "setting": "mdx mice", "value": "increase muscle function"}]}]}
